Like-named read-outs stand apart in the source and are kept apart here.
Key:
[1] = Plasma and brain concentrations in rats after an oral dose; assay type: in vivo; details: rat, fasted male Sprague-Dawley rats, two hours after dosing; for Kp at 2 h: brain/plasma
Description: The compounds were prepared as a solution in a 10% DMSO/poly(ethylene glycol)-400 (v/v). Blood and brain samples were obtained from each animal two hours after dosing.
Rat brain tissue was homogenized with two parts water (by weight). Test compound was selectively extracted from plasma and brain homogenate using liquid-liquid extraction with tert-butylmethylether. The compounds of interest were separated from co-extracted contaminants on a 50×3 mm, Luna CN column (Phenomenex), with an acetonitrile:0.1% aqueous trifluoroacetic acid mobile phase at a flow rate of 0.35 ml/min. Plasma and tissue concentrations were determined by HPLC-MS/MS on an API2000 with Turbo Ion Spray interface, with MRM detection in the positive ionization mode. To calibrate compound concentration, a separate portion of each tissue sample was spiked with a known quantity of test compound and analyzed simultaneously with the samples.

human TRPV1 receptor = biological target: T1, human TRPV1 receptor (Homo sapiens, UniProt Q8NER1); assay: Ca2+ influx assay (FLIPR, Fluo-4 AM) with capsaicin challenge in 1321N1 cells expressing recombinant TRPV1; assay type: cell-based; details: inhibition of 0.05 μM capsaicin response, hTRPV1 in 1321N1 human astrocytoma cells
T1 construct: expressed in transfected cells
Description: Dulbecco's modified Eagle medium (D-MEM) (with 4.5 mg/mL glucose) and fetal bovine serum were obtained from Hyclone Laboratories, Inc. (Logan, Utah). Dulbecco's phosphate-buffered saline (D-PBS) (with 1 mg/mL glucose and 3.6 mg/l Na pyruvate, without phenol red), L-glutamine, hygromycin B, and Lipofectamine® were obtained from Life Technologies (Grand Island, N.Y.). G418 sulfate was obtained from Calbiochem-Novabiochem Corp. (San Diego, Calif.). Capsaicin (8-methyl-N-vanillyl-6-nonenamide) was obtained from Sigma-Aldrich, Co. (St. Louis, Mo.). Fluo-4 AM (N-[4-[6-[(acetyloxy)methoxy]-2,7-difluoro-3-oxo-3H-xanthen-9-yl]-2-[2-[2-[bis[2-[(acetyloxy)methoxy]-2-oxyethyl]amino]-5-methy lphenoxy]ethoxy]phenyl]-N-[2-[(acetyloxy)methoxy]-2-oxyethyl]-glycine, (acetyloxy)methyl ester) was purchased from Molecular Probes (Eugene, Oreg.).
The cDNAs for the human TRPV1 receptor were isolated by reverse transcriptase-polymerase chain reaction (RT-PCR) from human small intestine poly A+RNA supplied by Clontech (Palo Alto, Calif.) using primers designed surrounding the initiation and termination codons identical to the published sequences (Hayes et al. Pain Vol. 88 pages 205-215, 2000). The resulting cDNA PCR products were subcloned into pCIneo mammalian expression vector (Promega) and fully sequenced using fluorescent dye-terminator reagents (Prism, Perkin-Elmer Applied Biosystems Division) and a Perkin-Elmer Applied Biosystems Model 373 DNA sequencer or Model 310 genetic analyzer. Expression plasmids encoding the hTRPV1 cDNA were transfected individually into 1321N1 human astrocytoma cells using Lipofectamine®. Forty-eight hours after transfection, the neomycin-resistant cells were selected with growth medium containing 800 μg/mL Geneticin (Gibco BRL). Surviving individual colonies were isolated and screened for TRPV1 receptor activity. Cells expressing recombinant homomeric TRPV1 receptors were maintained at 37° C. in D-MEM containing 4 mM L-glutamine, 300 μg/mL G418 (Cal-biochem) and 10% fetal bovine serum under a humidified 5% CO2 atmosphere.
The functional activity of compounds at the TRPV1 receptor was determined with a Ca^2+ influx assay and measurement of intracellular Ca^2+ levels ([Ca^2+]i). All compounds were tested over an 11-point half-log concentration range. Compound solutions were prepared in D-PBS (4× final concentration), and diluted serially across 96-well v-bottom tissue culture plates using a Biomek 2000 robotic automation workstation (Beckman-Coulter, Inc., Fullerton, Calif.). A 0.2 μM solution of the TRPV1 agonist capsaicin was also prepared in D-PBS. The fluorescent Ca^2+ chelating dye Fluo-4 AM was used as an indicator of the relative levels of [Ca^2+]i in a 96-well format using a Fluorescence Imaging Plate Reader (FLIPR)(Molecular Devices, Sunnyvale, Calif.). Cells were grown to confluency in 96-well black-walled tissue culture plates. Then, prior to the assay, the cells were loaded with 100 μL per well of Fluo-4 AM (2 μM, in D-PBS) for 1-2 hours at 23° C. Washing of the cells was performed to remove extracellular Fluo-4 AM (2×1 mL D-PBS per well), and afterward, the cells were placed in the reading chamber of the FLIPR instrument. 50 μL of the compound solutions were added to the cells at the 10 second time mark of the experimental run. Then, after a 3-minute time delay, 50 μL of the capsaicin solution was added at the, 190 seconds time mark (0.05 μM final concentration)([…]) to challenge the TRPV1 receptor. Time length of the experimental run was 240 seconds. Fluorescence readings were made at 1 to 5 second intervals over the course of the experimental run. The peak increase in relative fluorescence units (minus baseline) was calculated from the 190 seconds time mark to the end of the experimental run, and expressed as a percentage of the 0.05 μM capsaicin (control) response.

[2] = brain, 30 μmol/kg oral, read-out: [Brain]
[3] = plasma, 30 μmol/kg oral, read-out: [Plasma]
[4] = brain, 10 μmol/kg PO, read-out: [Brain]
[5] = plasma, 10 μmol/kg PO, read-out: [Plasma]

T1 sequence (Q8NER1 whole entry): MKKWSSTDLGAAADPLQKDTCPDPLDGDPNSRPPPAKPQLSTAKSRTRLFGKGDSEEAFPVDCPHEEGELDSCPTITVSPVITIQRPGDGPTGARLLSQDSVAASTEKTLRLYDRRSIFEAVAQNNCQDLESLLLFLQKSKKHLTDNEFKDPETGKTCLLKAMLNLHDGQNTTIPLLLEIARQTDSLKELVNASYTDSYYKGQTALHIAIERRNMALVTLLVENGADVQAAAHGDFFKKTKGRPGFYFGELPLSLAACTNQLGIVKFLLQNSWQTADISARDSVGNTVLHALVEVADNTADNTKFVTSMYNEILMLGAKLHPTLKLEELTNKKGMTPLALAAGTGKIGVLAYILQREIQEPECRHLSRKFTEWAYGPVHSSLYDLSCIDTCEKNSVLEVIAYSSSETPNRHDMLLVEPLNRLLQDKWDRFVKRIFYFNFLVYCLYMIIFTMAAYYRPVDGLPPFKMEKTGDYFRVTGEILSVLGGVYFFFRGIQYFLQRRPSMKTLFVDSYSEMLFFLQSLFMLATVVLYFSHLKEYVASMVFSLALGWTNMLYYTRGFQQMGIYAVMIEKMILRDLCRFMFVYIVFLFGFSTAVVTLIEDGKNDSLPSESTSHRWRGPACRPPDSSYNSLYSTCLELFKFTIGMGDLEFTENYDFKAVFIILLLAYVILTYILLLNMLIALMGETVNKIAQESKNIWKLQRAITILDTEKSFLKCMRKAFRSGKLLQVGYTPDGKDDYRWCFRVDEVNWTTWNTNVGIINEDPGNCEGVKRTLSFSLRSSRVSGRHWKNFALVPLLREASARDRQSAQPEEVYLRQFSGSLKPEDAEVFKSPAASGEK

Structure (SMILES)	Kp at 2 h ([1]; 30 μmol/kg oral)	concentration at 2 h [1, 2] [ng/g]	concentration at 2 h [1, 3] [ng/mL]	IC50 (human TRPV1 receptor) [nM]	Kp at 2 h ([1]; 10 μmol/kg PO)	concentration at 2 h [1, 4] [ng/g]	concentration at 2 h [1, 5] [ng/mL]
Cc1nc(Nc2cccc3c2CC(O)CC3)oc1-c1ccc(C(F)(F)F)cc1F (stereo not drawn) [Compound 5, 8-({5-[2-fluoro-4-(trifluoromethyl)phenyl]-4-methyl-1,3-oxazol-2-yl}amino)-1,2,3,4-tetrahydronaphthalen-2-ol]	3	660	210	43			
Cc1nc(Nc2cccc3c2CC(O)CC3)oc1-c1ccc(C(F)(F)F)c(F)c1F (stereo not drawn) [Compound 6, 8-({5-[2,3-difluoro-4-(trifluoromethyl)phenyl]-4-methyl-1,3-oxazol-2-yl}amino)-1,2,3,4-tetrahydronaphthalen-2-ol]	1.7	230	130	62			
Cc1nc(Nc2cccc3c2CC(O)CC3)oc1-c1ccc(OC(F)(F)F)cc1 (stereo not drawn) [Compound 9, 8-({4-methyl-5-[4-(trifluoromethoxy)phenyl]-1,3-oxazol-2-yl}amino)-1,2,3,4-tetrahydronaphthalen-2-ol]	4	2100	510	184			
Cc1nc(Nc2cccc3c2CC(O)CC3)oc1-c1ccc(C(F)(F)F)cc1 (stereo not drawn) [Compound 12, 8-({4-methyl-5-[4-(trifluoromethyl)phenyl]-1,3-oxazol-2-yl}amino)-1,2,3,4-tetrahydronaphthalen-2-ol]	6.3	3300	490				
Cc1nc(Nc2cccc3c2CC(O)CC3)oc1-c1ccc(Cl)cc1 (stereo not drawn) [Compound 13, 8-{[5-(4-chlorophenyl)-4-methyl-1,3-oxazol-2-yl]amino}-1,2,3,4-tetrahydronaphthalen-2-ol]	5.6	600	93	108			
Cc1nc(Nc2cccc3c2CC(O)CC3)oc1-c1ccc(C#N)cc1 (stereo not drawn) [Compound 15, 4-{2-[(7-hydroxy-5,6,7,8-tetrahydronaphthalen-1-yl)amino]-4-methyl-1,3-oxazol-5-yl}benzonitrile]	1.3	310	250	36			
Cc1nc(Nc2cccc3c2CC(O)CC3)oc1-c1ccc(C(F)(F)F)o1 (stereo not drawn) [Compound 31, 8-({4-methyl-5-[5-(trifluoromethyl)-2-furyl]-1,3-oxazol-2-yl}amino)-1,2,3,4-tetrahydronaphthalen-2-ol]				703	1.3	50	40
C=C(C)[C@H]1CC=C(c2oc(Nc3cccc4c3CC(O)CC4)nc2C)CC1 (stereo partly drawn) [Compound 32, 8-({5-[(4R)-4-isopropenylcyclohex-1-en-1-yl]-4-methyl-1,3-oxazol-2-yl}amino)-1,2,3,4-tetrahydronaphthalen-2-ol]				395	1.9	15	9
Cc1nc(Nc2cccc3c2CC(O)CC3)oc1-c1ccc(S(F)(F)(F)(F)F)cc1 (stereo not drawn) [Compound 40, 8-({4-methyl-5-[4-(pentafluoro-lambda˜6˜sulfanyl)phenyl]-1,3-oxazol-2-yl}amino)-1,2,3,4-tetrahydronaphthalen-2-ol]				52	1.4	160	110
CCc1nc(Nc2cccc3c2C[C@H](O)CC3)oc1-c1ccc(C(F)(F)F)cc1 [Compound 43, (2R)-8-({4-ethyl-5-[4-(trifluoromethyl)phenyl]-1,3-oxazol-2-yl}amino)-1,2,3,4-tetrahydronaphthalen-2-ol]				74	2.8	410	140
Cc1nc(Nc2cccc3c2CC(O)CO3)oc1-c1ccc(C(F)(F)F)cc1 (stereo not drawn) [Compound 51, 5-({4-methyl-5-[4-(trifluoromethyl)phenyl]-1,3-oxazol-2-yl}amino)chroman-3-ol]				618	2.7	800	300
O[C@@H]1CCc2cccc(Nc3nc(C(F)F)c(-c4ccc(C(F)(F)F)cc4)o3)c2C1 [Compound 53, (2R)-8-({4-(difluoromethyl)-5-[4-(trifluoromethyl)phenyl]-1,3-oxazol-2-yl}amino)-1,2,3,4-tetrahydronaphthalen-2-ol]				38	3.4	930	270
OC1CCc2cccc(Nc3ncc(-c4ccc(C(F)(F)F)cc4)o3)c2C1 (stereo not drawn) [Compound A, 8-({5-[4-(trifluoromethyl)phenyl]-1,3-oxazol-2-yl}amino)-1,2,3,4-tetrahydronaphthalen-2-ol, reference compound]	0	0	0	22			
